Tests used:
[1] = system: fatty streaks in the blood vessels of rabbits; experiment: Fatty streak formation in aorta of cholesterol-fed rabbits; type: in vivo, New Zealand white rabbits; conditions: rabbits on 1% cholesterol chow, 12 weeks
Source text: This investigation used an experimental system in which fatty streaks are induced in the blood vessels of rabbits by incorporation of 1 % cholesterol in their food. For further detail, see A. A. Taylor and C. V. Smith, Circulation 18 I-697 (1999). Similar experimental systems have been used previously for the evaluation of the efficacy of pharmaceutical compounds for treating, preventing, and regressing atherosclerosis. For example, see Daugherty, A., et al., “Probucol Attentuates the Development of Aortic Atherosclerosis in Cholesterol-Fed Rabbits,” 98(2) Br. J. Pharm. 612-18 (1989), which is incorporated by reference herein.
(§1) Twenty-three, six-week old male New Zealand white rabbits obtained from Myrtle's Rabbitry (Houston, Tex.) and weighing between about 1.8 kg and 2 kg were separated into two groups: Group 1 (experimental) having 12 rabbit/group and Group 2 (control) having 11 rabbits/group. At the beginning of the study, all rabbits were allowed water ad libitum and ate normal rabbit chow.
After a two week acclimatization period, all of the rabbits were then placed on normal rabbit chow supplemented with 1% cholesterol (ICN Biochemicals, Inc., Costa Mesa, Calif.), in order to induce fatty streak formation in their blood vessel walls. […] The cages were monitored daily in order to assure that each rabbit consumed the contents of his respective water bottle. […]

isolated LDL [2] = experiment: TBARS analysis of copper-mediated oxidation of isolated LDL; parameters: species or system New Zealand white rabbits; conditions: 0.1 mg/ml LDL from APAP-fed rabbits, 5 μM CuSO4, 37° C., 4, 8 and 12 hours
Procedure: LDL Isolation: Plasma LDL was prepared by ultracentrifuation of a blood sample as disclosed in Havel, “The Distribution and Chemical Composition of Ultracentrifugally Separated Lpoproteins in Human Serum,” 34 JI. Clin. Inv. 1345 […], within a density cutoff of 1.020 g/ml to 1.055 g/ml and with the addition of 0.5 mg/ml ethylenediaminetetracetic acid (‘EDTA’) thereto. After adding a sample of this mixture to a semi-permable bag, the LDL was dialyzed therefrom against a vacuum-degassed 0.01 M Tris solution containing 0.15 M NaCl and 0.1 mg/ml EDTA under dark conditions and at 4° C. for 48 hours, followed by dialysis overnight using the same equipment but with a 0.01M phosphate buffer solution containing 0.15 M NaCl and no EDTA. The dialyzed LDL protein concentrations were then determined via the method set forth in Lowry, ‘Protein Measurement with the Folin Phenol Reagent,’ 226 J. Biol. Chem. 497-509 (1951). […] The concentrations of thiobarbituric acid reactive substances (“TBARS”) in each mixture were then measured with the same spectrophotometer as described by Streinbrecher, et al., “Decrease in reactive amino groups during oxidation or endothelial cell modification of LDL,” Arteriosclerosis 1987;7:135-143.

[3] = system: low density lipoprotein (LDL); conditions: literature report; cited from earlier work
[4] = Total plasma cholesterol levels in cholesterol-fed rabbits; type: in vivo, New Zealand white rabbits
Source text: Twenty-three, six-week old male New Zealand white rabbits obtained from Myrtle's Rabbitry (Houston, Tex.) and weighing between about 1.8 kg and 2 kg were separated into two groups: Group 1 (experimental) having 12 rabbit/group and Group 2 (control) having 11 rabbits/group. At the beginning of the study, all rabbits were allowed water ad libitum and ate normal rabbit chow. After a two week acclimatization period, all of the rabbits were then placed on normal rabbit chow supplemented with 1% cholesterol (ICN Biochemicals, Inc., Costa Mesa, Calif.), in order to induce fatty streak formation in their blood vessel walls. Rabbits in Group 1 were switched from water to an acetaminophen solution for about a 40 mg/kgrabbit APAP dose. A 40 mg/kg dose of APAP in a 2.5 kg rabbit is equivalent to about a 2800 mg/day dose in a 70 kg human. The other group of rabbits remained on water for the remainder of the study. The cages were monitored daily in order to assure that each rabbit consumed the contents of his respective water bottle. After cannulating the femoral artery and advancing into the distal aorta region of each rabbit, blood was aspirated therefrom for isolation of LDL fraction. The blood of each rabbit was drawn into 1000 U of Heparin sodium in order to prevent coagulation, then the plasma was separated therefrom via centrifugation at 2000 rpm for ten minutes. […]

oxysterols in LDL = experiment: Oxysterol concentrations in LDL isolated from cholesterol-fed rabbits; type: in vivo, New Zealand white rabbits
Procedure: LDL Isolation: Plasma LDL was prepared by ultracentrifuation of a blood sample as disclosed in Havel, “The Distribution and Chemical Composition of Ultracentrifugally Separated Lpoproteins in Human Serum,” 34 JI. Clin. Inv. 1345 […], within a density cutoff of 1.020 g/ml to 1.055 g/ml and with the addition of 0.5 mg/ml ethylenediaminetetracetic acid (‘EDTA’) thereto. After adding a sample of this mixture to a semi-permable bag, the LDL was dialyzed therefrom against a vacuum-degassed 0.01 M Tris solution containing 0.15 M NaCl and 0.1 mg/ml EDTA under dark conditions and at 4° C. for 48 hours, followed by dialysis overnight using the same equipment but with a 0.01M phosphate buffer solution containing 0.15 M NaCl and no EDTA. The dialyzed LDL protein concentrations were then determined via the method set forth in Lowry, ‘Protein Measurement with the Folin Phenol Reagent,’ 226 J. Biol. Chem. 497-509 (1951).
as §1
After a two week acclimatization period, all of the rabbits were then placed on normal rabbit chow supplemented with 1% cholesterol (ICN Biochemicals, Inc., Costa Mesa, Calif.), in order to induce fatty streak formation in their blood vessel walls. Rabbits in Group 1 were switched from water to an acetaminophen solution for about a 40 mg/kgrabbit APAP dose. A 40 mg/kg dose of APAP in a 2.5 kg rabbit is equivalent to about a 2800 mg/day dose in a 70 kg human. The other group of rabbits remained on water for the remainder of the study. The cages were monitored daily in order to assure that each rabbit consumed the contents of his respective water bottle.
Oxo-sterol concentrations in the isolated LDL were also determined by the method set forth in Hughes, et. al., “Cytotoxicity of Oxidized LDL to Porcine Aortic Smooth Muscle Cells Is Associated with the Oxysterols 7-ketocholesterol and 7-hydrocholesterol,” 14(7) Arterioscler. Thromb. 1177-85 (1994). In general, the oxysterols were initially separated from the LDL via a Bligh and Dyer extraction followed by extraction using amino-propyl solid phase extraction columns available from Varian Instruments in order to further separate the lipids by polarity. The oxysterol-containing eluents were then dried therefrom under a nitrogen atmosphere and derivatized with N,O-bis(trimethylsilyl)trifluooroacetamide) (“BSTFA”) in a test tube. 10 μl of cholestane was added to the dried eluent at the time of derivatization as an internal standard. The derivatized samples were then analyzed using a gas chromatograph column having a flame ionization detector .The column program included initial temperature of 250° C. for 2 minutes, followed by temperature increases of 8° C./minute to 325° C., and then a final 8 minute temperature hold at 325° C. The amount of oxysterols in the LDL were then quantitated using known standards by ratio of the peak area of the oxysterol to cholestane. The concentrations of oxysterols are set forth below in Table B: […]

isolated LDL [5] = experiment: Dienes analysis of copper-mediated oxidation of isolated LDL; parameters: species or system New Zealand white rabbits; conditions: 0.1 mg/ml LDL from APAP-fed rabbits, 5 μM CuSO4, 37° C., 6 hour period, FIG. 1
Procedure: LDL Isolation: Plasma LDL was prepared by ultracentrifuation of a blood sample as disclosed in Havel, “The Distribution and Chemical Composition of Ultracentrifugally Separated Lpoproteins in Human Serum,” 34 JI. Clin. Inv. 1345 […], within a density cutoff of 1.020 g/ml to 1.055 g/ml and with the addition of 0.5 mg/ml ethylenediaminetetracetic acid ('EDTA') thereto. After adding a sample of this mixture to a semi-permable bag, the LDL was dialyzed therefrom against a vacuum-degassed 0.01 M Tris solution containing 0.15 M NaCl and 0.1 mg/ml EDTA under dark conditions and at 4° C. for 48 hours, followed by dialysis overnight using the same equipment but with a 0.01M phosphate buffer solution containing 0.15 M NaCl and no EDTA. The dialyzed LDL protein concentrations were then determined via the method set forth in Lowry, 'Protein Measurement with the Folin Phenol Reagent,' 226 J. Biol. Chem. 497-509 (1951). […] Analysis: The kinetics of these copper-mediated oxidation reactions were followed at 10 minute intervals for a total period of 6 hours by monitoring changes in absorbance at 234 nm of each mixture using a Model UV-2101PC spectrophotometer available from Shimadzu. […]

[6] = APAP-fed versus control rabbits

Q: Which results are given for `CC(=O)Nc1ccc(O)cc1` [APAP, N-(4-hydroxyphenyl) acetamide]?
A: Average Fatty Streak/Total Aortic Area ([1]; about 40 mg/kg APAP in drinking water, control 0.58 + 0.06): 0.32 + 0.05; Aortic fatty streak areas versus control ([1]; about 40 mg/kg APAP, p<0.001): significantly reduced aortic fatty streak areas; TBARS formed during the LDL oxidation versus control (isolated LDL [2]): comparable; LDL lipid oxidation in vitro [3]: prevent low density lipoprotein (“LDL”) lipid oxidation in vitro; Average Circulating total Plasma Cholesterol Level ([4]; APAP-fed rabbits, 1% cholesterol chow, 12 weeks, control 1441 ± 87): 1592 ± 43 mg/dL; Amount of circulating cholesterol in the blood plasma versus control [4, 6]: did not produce a significant difference; Average 5b, 6b-epoxide concentration in LDL (oxysterols in LDL; APAP-fed rabbits, 1% cholesterol chow, 12 weeks, control 0.24 + 0.05): 0.12 + 0.13 nmol/mg LDL; Average 5a, 6a-epoxide concentration in LDL (oxysterols in LDL; APAP-fed rabbits, 1% cholesterol chow, 12 weeks, control 0.49 + 0.08): 0.11 + 0.05 nmol/mg LDL; Average 7bOH-cholesterol concentration in LDL (oxysterols in LDL; APAP-fed rabbits, 1% cholesterol chow, 12 weeks, control 1.01 + 0.26): 0.32 + 0.07 nmol/mg LDL; Average 7aOH-cholesterol concentration in LDL (oxysterols in LDL; APAP-fed rabbits, 1% cholesterol chow, 12 weeks, control 2.31 + 0.62): 0.58 + 0.12 nmol/mg LDL; Average 7keto-cholesterol concentration in LDL (oxysterols in LDL; APAP-fed rabbits, 1% cholesterol chow, 12 weeks, control 3.86 + 1.72): 0.41 + 0.14 nmol/mg LDL; Decrease in 7-alpha hydroxycholesterol values (oxysterols in LDL; [6]): 4 fold; Decrease in 7-beta hydroxycholesterol values (oxysterols in LDL; [6]): 3 fold; Decrease in 7-keto cholesterol values (oxysterols in LDL; [6]): 9 fold; Absorbance at 234 nm of isolated LDL (dienes) versus control (isolated LDL [5]): lower absorbance values
